The text below walks through data of the Kinase Knowledgebase extract (Sharma et al. 2016).

What is called pIC50 is the IC50 on a negative log10 scale, so that one unit is a factor of ten. Higher therefore signals a small IC50.

Structures are written as SMILES. pIC50: −log10 of the molar value. Some results are limits rather than exact numbers.

In this test the target is MAPK14 (human) (UniProt Q16539). The test can be described thus: Inhibition of MAPK14 Kinase Activity.
MAPK14 (human), sequence (Q16539 whole entry, looked up): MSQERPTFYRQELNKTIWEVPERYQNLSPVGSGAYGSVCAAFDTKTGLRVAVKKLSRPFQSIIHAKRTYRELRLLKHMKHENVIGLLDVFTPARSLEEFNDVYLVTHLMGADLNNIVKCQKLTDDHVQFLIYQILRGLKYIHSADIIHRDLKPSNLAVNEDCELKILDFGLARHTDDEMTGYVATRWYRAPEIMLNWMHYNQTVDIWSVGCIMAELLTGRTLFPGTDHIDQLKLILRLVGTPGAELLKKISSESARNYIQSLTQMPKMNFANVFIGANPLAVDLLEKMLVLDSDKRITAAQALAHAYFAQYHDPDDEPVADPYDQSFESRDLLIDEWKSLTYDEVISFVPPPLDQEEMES
Consider `CCON=C(c1ccc(F)cc1)c1ccc2c(cnn2CC(C)C)c1`, for which the negative logarithm of the IC50 (pIC50) is greater than 6.30.

`CS(=O)(=O)n1ncc2cc(C(=NO)c3ccc(F)cc3F)ccc21` showed a pIC50 greater than 6.30.

`CC(C)Cn1ncc2cc(C(O)c3ccc(F)cc3F)ccc21` (stereo not drawn): the pIC50 was greater than 6.30.

`CC(C)Cn1ncc2cc(Oc3ccc(F)cc3)c(C(N)=O)cc21` had a pIC50 greater than 6.30.

Consider `Cc1ccccc1Nc1ccc2c(cnn2CC(C)C)c1`, for which the pIC50 was greater than 6.30.

On to `CC(C)Cn1ncc2cc(C(=O)c3ccc(F)cc3Cl)ccc21`, for which the pIC50 is greater than 6.30.

With `CN(C)CCNC(=O)c1cc2c(cnn2CC(F)(F)F)cc1Oc1ccc(F)cc1`, the pIC50 is greater than 6.30.

Compound `CC(C)Cn1ncc2cc(Nc3ccc(F)cc3F)ccc21` gave a pIC50 greater than 6.30.

`CC(C)Cn1ncc2cc(C(=NOCc3ccccc3)c3ccc(F)cc3F)ccc21` showed a pIC50 greater than 6.30.

Consider `CC(C)Cn1ncc2cc(C(=NO)c3ccc(F)cc3F)ccc21`, for which the pIC50 was greater than 6.30.

`CC(C)Cn1ncc2cc(Oc3ccc(F)cc3)c(C(=O)NCCN(C)C)cc21` gave a pIC50 greater than 6.30.

`CC(C)Cn1ncc2cc(Nc3ccc(F)cc3)ccc21`: the pIC50 was greater than 6.30.

Compound `CC(C)Cn1ncc2cc(C(=O)c3ccc(F)cc3F)ccc21` gave a pIC50 greater than 6.30.

`CCON=C(c1ccc2c(cnn2CC(C)C)c1)c1ccc(F)cc1F` had a pIC50 greater than 6.30.

`C=CCn1ncc2cc(C(=O)c3ccc(F)cc3F)ccc21` showed a pIC50 greater than 6.30.

In the case of `C=CCn1ncc2cc(C(=NO)c3ccc(F)cc3F)ccc21`, the pIC50 is greater than 6.30.

The compound `CC(C)Cn1ncc2cc(C(O)c3ccc(F)cc3Cl)ccc21` (stereo not drawn) showed a pIC50 greater than 6.30.

On to `COC(=O)C(CCN)NC(=O)c1cc2c(cnn2CC(F)(F)F)cc1Oc1ccc(F)cc1` (stereo not drawn), for which the pIC50 was greater than 6.30.

`ON=C(c1ccc2c(cnn2CC(F)(F)F)c1)c1ccc(F)cc1F` had a pIC50 greater than 6.30.

For `CC(C)Cn1ncc2cc(C(=NO)c3ccc(F)cc3)ccc21`, the pIC50 was greater than 6.30.

With `Cc1ccccc1C(O)c1ccc2c(cnn2CC(C)C)c1` (stereo not drawn), the pIC50 was greater than 6.30.

Compound `CC(C)Cn1ncc2cc(C(=O)c3ccc(Cl)cc3Cl)ccc21` showed a pIC50 greater than 6.30.

With `CC(C)Cn1ncc2cc(C(O)c3ccc(Cl)cc3Cl)ccc21` (stereo not drawn), the pIC50 is greater than 6.30.

In the case of `COC(=O)C(CCN)NC(=O)c1cc2c(cnn2CC(C)C)cc1Oc1ccc(F)cc1` (stereo not drawn), the pIC50 is greater than 6.30.

With `Cc1ccccc1C(=O)c1ccc2c(cnn2CC(C)C)c1`, the pIC50 was greater than 6.30.

For the compound `CC(C)Cn1ncc2cc(C(=O)c3ccc(Cl)cc3F)ccc21`, the pIC50 was greater than 6.30.

The compound `CON=C(c1ccc2c(cnn2S(C)(=O)=O)c1)c1ccc(F)cc1F` showed a pIC50 greater than 6.30.

With `CON=C(c1ccc(F)cc1)c1ccc2c(cnn2CC(C)C)c1`, the pIC50 was greater than 6.30.

As for `O=C(c1ccc2c(cnn2CC(F)(F)F)c1)c1ccc(F)cc1F`, the pIC50 was greater than 6.30.

As for `CC(C)Cn1ncc2cc(C(=O)c3ccc(F)cc3)ccc21`, the pIC50 was greater than 6.30.

Compound `CC(C)Cn1ncc2cc(C(O)c3ccc(Cl)cc3F)ccc21` (stereo not drawn) showed a pIC50 greater than 6.30.

For the compound `CON=C(c1ccc2c(cnn2CC(F)(F)F)c1)c1ccc(F)cc1F`, the pIC50 was greater than 6.30.

Turning to `CC(C)Cn1ncc2cc(C(O)c3ccc(F)cc3)ccc21` (stereo not drawn), the pIC50 was greater than 6.30.
